This is an account of results in patent US11173173B2, “Methods for treating chemoresistant cancer-initiating cells” (UNIVERSITY OF CONNECTICUT, priority 2015, dated 2021).

One experiment concerns colon cancer. As to conditions: in vitro; cited from earlier work.
The conditions of experiment [1]: cited from earlier work.
Experiment [2] relates to BM cells isolated from leukemic Pten:β-cat^Act double mutants (LSCs, HSPCs). Put plainly: In vitro treatment of BM cells from leukemic mice, flow cytometry for LSCs and HSPCs. The experiment is classed as cell-based, mouse. As to conditions: BM cells from leukemic double mutants in vitro. As for the experimental part:
Doxorubicin, 0105375, and thioguanosine were added to 11, 33 or 100 nM and cultured for 72 hours and analyzed by flow cytometry for LSCs (a) and HSPCs (b) as in FIG. 1. Fold change before and after culture for each population is indicated relative to equivalent vehicle control concentrations.
Bone marrow cells from leukemic mice at 8 weeks post-induction were cultured overnight at 5-20×10^4 cells per well in 96-well U-bottom tissue culture plates (Becton, Dickinson and Company; Cat. No. 353077) in HSC expansion media in low O2 conditions as previously described (Perry, J. M. et al. Cooperation between both Wnt/{beta}-catenin and PTEN/PI3K/Akt signaling promotes primitive hematopoietic stem cell self-renewal and expansion. Genes Dev 25, 1928-1942 (2011)). Doxorubicin (Sigma; D1515), 0105375 ((S)-N-(2-bromobenzyl)-N-(1-hydroxy-3-phenylpropan-2-yl)ethenesulfonamide, University of Kansas CMLD compound), or Thioguanosine was mixed with HSC expansion media and added to the cultures to obtain final concentrations of 11, 33, 100 nM. Equivalent amounts of DMSO alone (vehicle control) were added to parallel cultures for comparison. Half-media changes were performed approximately every 24 hrs. Cultures were analyzed after 72 hrs exposure to the indicated drug.
In general terms: Flow cytometry measures light scatter and fluorescence of single cells or particles in a stream.

In another experiment the test system is pan β-catenin. Briefly: Western analysis of pan β-catenin in compound-treated TOP and FOP cells. Particulars: TOP and FOP cells treated 48 hours at EC90, EC50, EC25.
In the next experiment the test system is pS^552-β-catenin. Put plainly: Western analysis of pS552-β-catenin in compound-treated TOP and FOP cells.

Protocol for pS^552-β-catenin: (§1) Cytotoxicity profiles (CTG) of compounds were also determined. […] TOP and FOP cells were treated with candidate compounds at EC90, EC50 and EC25 derived from (b) for 48 hours, washed and flash frozen for Western analysis (c).
(§2) Activity of compounds was tested against HEK-TOP cells vs. HEK FOP cells for inhibition of luciferase activity. The cytotoxicity profiles of the compounds were also tested using Cell Titer Glo assay (Promega) on HEK-TOP cell lines. […] The HEK cells and HEK Top cells were plated at 300,000 cells/well in 6 well plates and were treated in duplicate with EC90, EC50 and EC25 concentrations of the 25 repurchased compounds as well as three controls. After 48 h of exposure, the cells were washed with PBS and flash frozen. The frozen cells were lysed directly in plates for Western analysis.
Protocol for pan β-catenin: as §1, §2

On to `Oc1nc(-c2ccc(C(F)(F)F)cc2)nc2c1CSCC2` [XAV-939], for which, in the experiment with colon cancer, the “reversal of resistance to PI3K and Akt inhibitors” value is recorded as “reverse this resistance in vitro”. Moreover, the activity in vivo entry in experiment [1] is reported as “low activity of this inhibitor in vivo”.
Turning to `C=CS(=O)(=O)N(Cc1ccccc1Br)[C@H](CO)Cc1ccccc1` [compound 0105375, (S)-N-(2-bromobenzyl)-N-(1-hydroxy-3-phenylpropan-2-yl)ethenesulfonamide], in experiment [2], the “potency relative to DXR” value is recorded as “far less potency than DXR”. In addition, in the experiment on pan β-catenin, the “effect on pan β-catenin (Western)” value is recorded as “no significant effect on pan β-catenin”. Besides, in the experiment on pS^552-β-catenin (TOP and FOP cells treated 48 hours at EC90, EC50, EC25), the “inhibition of pS552-β-catenin (Western)” value is on record as “effectively inhibited pS^552-β-catenin”. The “concentration needed to inhibit pS552-β-catenin” value in the experiment on pS^552-β-catenin (relatively high concentrations) is more than 1 μM.
